Laboratory results as given in ChEMBL document CHEMBL1201862, “PubChem BioAssay data set” (2004).
pIC50: −log10 of the molar value. Active and inactive are the calls of the source.

Key:
[1] = target: Cytochrome P450 2D6 (Homo sapiens, UniProt P10635);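 note: CYP2D6 member of a cytochrome P450 panel assay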
[2] = target: Cannabinoid receptor 1 (Homo sapiens, UniProt P21554); experiment: SAR analysis of antagonists of the Cannabinoid Receptor 1 using an Image-Based Assay. [Related pubchem assays (depositor defined):AID1961, AID1965]; assay type: functional
Sequence of Cannabinoid receptor 1 (P21554 whole entry): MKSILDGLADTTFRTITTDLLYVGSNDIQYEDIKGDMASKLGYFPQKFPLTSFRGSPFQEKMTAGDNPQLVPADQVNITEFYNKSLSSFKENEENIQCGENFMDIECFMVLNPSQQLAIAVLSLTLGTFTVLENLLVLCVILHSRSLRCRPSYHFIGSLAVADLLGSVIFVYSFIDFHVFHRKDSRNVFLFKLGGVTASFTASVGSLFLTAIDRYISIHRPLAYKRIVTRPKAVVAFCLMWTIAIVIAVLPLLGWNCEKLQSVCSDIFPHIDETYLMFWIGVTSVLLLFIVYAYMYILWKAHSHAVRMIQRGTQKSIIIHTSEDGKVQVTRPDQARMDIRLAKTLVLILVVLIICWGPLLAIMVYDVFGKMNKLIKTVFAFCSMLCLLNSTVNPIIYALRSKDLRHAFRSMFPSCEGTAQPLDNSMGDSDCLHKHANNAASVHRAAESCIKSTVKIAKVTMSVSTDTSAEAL

[3] = target: T1, Cannabinoid receptor 2 (Homo sapiens, UniProt P34972); experiment: SAR analysis of agonists of the Cannabinoid Receptor 2 using an Image-Based Assay - Set 2. [Related pubchem assays (depositor defined):AID1961, AID1965]; assay type: functional
T1 sequence (P34972 whole entry): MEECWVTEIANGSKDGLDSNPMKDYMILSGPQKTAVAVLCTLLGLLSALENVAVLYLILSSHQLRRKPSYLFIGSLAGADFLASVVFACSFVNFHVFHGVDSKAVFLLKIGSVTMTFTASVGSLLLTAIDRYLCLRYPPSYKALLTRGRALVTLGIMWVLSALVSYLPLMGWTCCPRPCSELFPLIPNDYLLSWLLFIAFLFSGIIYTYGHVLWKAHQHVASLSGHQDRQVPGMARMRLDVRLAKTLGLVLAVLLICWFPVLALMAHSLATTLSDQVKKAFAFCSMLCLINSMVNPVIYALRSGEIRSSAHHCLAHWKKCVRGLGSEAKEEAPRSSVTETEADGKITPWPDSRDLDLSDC

[4] = target: G-protein coupled receptor 55 (Homo sapiens, UniProt Q9Y2T6); experiment: SAR analysis of selective Agonists of GPR55 using an Image-Based Assay. [Related pubchem assays (depositor defined):AID1961, AID1965]; assay type: functional
Sequence of G-protein coupled receptor 55 (Q9Y2T6 whole entry): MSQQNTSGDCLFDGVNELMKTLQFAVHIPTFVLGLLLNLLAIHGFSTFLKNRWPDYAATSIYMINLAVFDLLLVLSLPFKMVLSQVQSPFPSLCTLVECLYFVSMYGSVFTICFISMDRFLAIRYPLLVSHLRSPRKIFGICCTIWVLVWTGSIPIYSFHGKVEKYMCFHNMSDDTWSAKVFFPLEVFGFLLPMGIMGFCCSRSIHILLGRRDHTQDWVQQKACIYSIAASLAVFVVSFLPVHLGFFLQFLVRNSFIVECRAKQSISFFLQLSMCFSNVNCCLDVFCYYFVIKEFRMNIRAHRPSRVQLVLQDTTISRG

[5] = target: T1, Cannabinoid receptor 2; experiment: SAR analysis of antagonists of the Cannabinoid Receptor 2 using an Image-Based Assay - Set 2. [Related pubchem assays (depositor defined):AID1961, AID1965]; assay type: functional
[6] = viability loss of HMLE_sh_eGFP cells – cell-based, luminescence, counter-screen for HMLE_sh_ECad selective toxicity project, dose response (AID 463074); assay type: functional, Homo sapiens;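 note: HMLE human mammary epithelial cells expressing control shRNA against eGFP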
[7] = Luminescence Cell-Based Dose Retest to Confirm Inhibitors of Cancer Stem Cells. [Related pubchem assays (depositor defined):AID2717, AID2721]; assay type: functional; conditions: Homo sapiens
[8] = test system: Vero; experiment: cells; assay type: functional; conditions: Chlorocebus sabaeus
[9] = NIH3T3 cell viability loss – ATP luminescence, mouse fibroblasts, counter-screen, dose response (AID 2010); assay type: functional, cell-based;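 note: cells exposed to compound for about 90 hours before reading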
[10] = test system: H9c2; experiment: cells; assay type: functional, cell-based; conditions: Rattus norvegicus, H9c2, Myocardium;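 note: confirmatory concentration-response retest of ultra-high-throughput screening hits for modulation of myocardial damage; cell death induced by hydrogen peroxide oxidative stress; compound pretreatment for 60 min then peroxide exposure for 2 h; potency is for protecting the cells against peroxide damage rather than for killing them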
[11] = test system: Vero; experiment: cells; assay type: functional, cell-based; conditions: Chlorocebus sabaeus
[12] = target: T2, Kappa-type opioid receptor (Homo sapiens, UniProt P41145); assay type: functional
T2 sequence (P41145 whole entry): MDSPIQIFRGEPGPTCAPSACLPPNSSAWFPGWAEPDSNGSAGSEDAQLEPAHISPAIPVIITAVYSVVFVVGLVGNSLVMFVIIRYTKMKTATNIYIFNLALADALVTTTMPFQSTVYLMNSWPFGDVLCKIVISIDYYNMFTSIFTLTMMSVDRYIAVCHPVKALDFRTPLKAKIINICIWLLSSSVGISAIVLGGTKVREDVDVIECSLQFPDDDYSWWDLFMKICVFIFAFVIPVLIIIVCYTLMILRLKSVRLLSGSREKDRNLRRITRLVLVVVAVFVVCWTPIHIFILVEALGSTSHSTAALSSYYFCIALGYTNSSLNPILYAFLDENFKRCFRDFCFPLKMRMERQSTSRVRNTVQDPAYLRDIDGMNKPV

[13] = Trypanosoma cruzi growth suppression in host cells – NIH3T3 host cells, beta-gal luminescence, confirmation (AID 2044); assay type: functional, cell-based;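 note: intracellular parasites grown in NIH/3T3 mouse fibroblasts as host cells; luminescent beta-galactosidase reporter signal from transgenic T. cruzi replicating inside host cells; inhibitors lower the luminescence signal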
[14] = target: Mu-type opioid receptor (Homo sapiens, UniProt P35372); experiment: HTS Image-Based Screen for Agonists of the MOR Receptor. [Related pubchem assays (depositor defined):AID1777, AID1785, AID1786, AID2133]; assay type: functional;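 note: imaging of beta-arrestin GFP recruitment into spots after receptor activation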
Sequence of Mu-type opioid receptor (P35372 whole entry): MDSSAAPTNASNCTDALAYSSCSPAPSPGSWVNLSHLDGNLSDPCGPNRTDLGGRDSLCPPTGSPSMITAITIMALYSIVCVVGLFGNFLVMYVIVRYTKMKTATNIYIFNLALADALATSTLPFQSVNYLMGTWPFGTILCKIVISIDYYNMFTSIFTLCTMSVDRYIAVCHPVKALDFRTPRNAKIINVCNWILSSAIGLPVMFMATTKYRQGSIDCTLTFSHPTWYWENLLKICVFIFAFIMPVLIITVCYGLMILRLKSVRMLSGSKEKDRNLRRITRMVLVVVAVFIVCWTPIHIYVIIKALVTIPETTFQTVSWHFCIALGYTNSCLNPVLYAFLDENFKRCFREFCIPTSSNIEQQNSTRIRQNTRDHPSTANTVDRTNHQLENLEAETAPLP

[15] = test system: Streptococcus; experiment: GAS UMAA2166 growth inhibition – luminescence, BacTiterGlo, counter-screen for streptokinase expression inhibitor project, dose response (AID 1915); assay type: functional, organism-based;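 note: potency for reduction of bacterial viability or growth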
[16] = target: T3, Delta-type opioid receptor (Homo sapiens, UniProt P41143); experiment: HTS Image-Based Screen for Antagonists of the DOR Receptor. [Related pubchem assays (depositor defined):AID1777, AID1785, AID1786, AID2133]; assay type: functional
T3 sequence (P41143 whole entry): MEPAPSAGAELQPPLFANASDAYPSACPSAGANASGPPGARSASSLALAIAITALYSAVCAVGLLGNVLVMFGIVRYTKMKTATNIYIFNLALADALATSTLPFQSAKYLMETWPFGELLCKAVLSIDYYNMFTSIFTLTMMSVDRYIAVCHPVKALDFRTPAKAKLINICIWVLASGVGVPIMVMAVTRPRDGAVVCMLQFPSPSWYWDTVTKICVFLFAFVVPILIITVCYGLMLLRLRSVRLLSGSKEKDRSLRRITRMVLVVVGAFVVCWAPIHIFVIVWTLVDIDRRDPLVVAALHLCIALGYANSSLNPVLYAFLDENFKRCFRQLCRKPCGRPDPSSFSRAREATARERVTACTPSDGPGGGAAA

[17] = target: T3, Delta-type opioid receptor; experiment: HTS Image-Based Screen for Agonists of the DOR Receptor. [Related pubchem assays (depositor defined):AID1777, AID1786, AID2133]; assay type: functional
[18] = test system: Streptococcus sp. 'group A'; experiment: Streptococcus pyogenes SK(-)GAS viability under kanamycin – luminescence, BacTiterGlo, confirmation, counter-screen for streptokinase expression inhibitor project, dose response (AID 1900); assay type: functional, organism-based
[19] = target: Beta-galactosidase (Escherichia coli, UniProt Q8VNN2); assay type: functional
Sequence of Beta-galactosidase (Q8VNN2 whole entry): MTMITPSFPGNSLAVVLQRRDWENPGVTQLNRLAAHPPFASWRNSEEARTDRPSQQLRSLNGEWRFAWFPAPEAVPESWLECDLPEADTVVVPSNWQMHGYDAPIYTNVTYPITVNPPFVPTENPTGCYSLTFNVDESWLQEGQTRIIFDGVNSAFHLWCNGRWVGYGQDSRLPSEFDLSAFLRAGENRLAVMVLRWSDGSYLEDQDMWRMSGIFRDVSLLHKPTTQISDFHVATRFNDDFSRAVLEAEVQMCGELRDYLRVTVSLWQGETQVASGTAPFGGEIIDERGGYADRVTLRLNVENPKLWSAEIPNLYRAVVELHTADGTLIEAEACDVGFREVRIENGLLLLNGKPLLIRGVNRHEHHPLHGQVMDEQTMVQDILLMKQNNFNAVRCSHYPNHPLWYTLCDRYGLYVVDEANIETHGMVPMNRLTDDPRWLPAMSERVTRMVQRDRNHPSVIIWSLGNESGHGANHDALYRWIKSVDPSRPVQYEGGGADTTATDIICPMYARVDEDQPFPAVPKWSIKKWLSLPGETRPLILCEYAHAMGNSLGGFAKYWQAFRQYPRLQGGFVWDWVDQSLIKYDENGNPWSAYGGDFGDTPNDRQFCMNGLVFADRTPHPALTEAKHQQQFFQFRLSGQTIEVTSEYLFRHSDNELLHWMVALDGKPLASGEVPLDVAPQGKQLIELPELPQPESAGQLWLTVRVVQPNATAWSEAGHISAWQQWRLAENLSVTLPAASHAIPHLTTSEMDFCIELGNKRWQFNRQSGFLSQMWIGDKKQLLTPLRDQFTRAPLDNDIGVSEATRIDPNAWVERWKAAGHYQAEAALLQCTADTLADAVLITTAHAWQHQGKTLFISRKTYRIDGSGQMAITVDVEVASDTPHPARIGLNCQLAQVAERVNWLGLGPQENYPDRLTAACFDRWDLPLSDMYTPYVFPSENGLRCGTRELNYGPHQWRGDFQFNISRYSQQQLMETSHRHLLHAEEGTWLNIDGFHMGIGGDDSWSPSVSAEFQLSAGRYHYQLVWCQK

[20] = target: T2, Kappa-type opioid receptor; assay type: functional; remark: listed apart in the source

Sequence of Cytochrome P450 2D6 (P10635 whole entry): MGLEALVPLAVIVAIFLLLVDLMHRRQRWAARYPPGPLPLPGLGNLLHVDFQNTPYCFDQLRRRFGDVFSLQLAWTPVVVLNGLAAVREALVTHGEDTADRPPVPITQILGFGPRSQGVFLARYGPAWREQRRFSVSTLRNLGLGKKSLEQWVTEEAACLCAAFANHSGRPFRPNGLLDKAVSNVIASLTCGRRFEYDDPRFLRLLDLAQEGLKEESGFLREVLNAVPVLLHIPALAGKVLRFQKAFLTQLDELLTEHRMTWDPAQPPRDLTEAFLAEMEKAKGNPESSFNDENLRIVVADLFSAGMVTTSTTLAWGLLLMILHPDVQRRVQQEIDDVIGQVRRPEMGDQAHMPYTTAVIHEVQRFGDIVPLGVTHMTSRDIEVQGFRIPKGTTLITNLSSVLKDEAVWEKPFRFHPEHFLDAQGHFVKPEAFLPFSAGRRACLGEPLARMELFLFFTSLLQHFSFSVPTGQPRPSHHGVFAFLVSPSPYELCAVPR

Which AC50 [1] does the source give for `O=C(c1ccccc1)c1nn(-c2ccccc2)c(=O)cc1C(F)(F)F` here?
The AC50 was “inconclusive”.

Which results are given for `CCCN(CCC)Cc1c(C(=O)NN=C/C(C)=C\c2ccccc2)nnn1-c1nonc1N`?
IC50 [2]: > 32 µM (inactive); EC50 [3]: > 32 µM (inactive); EC50 [4]: 325 nM (active); IC50 [5]: > 32 µM (inactive)

For `COc1cc(NC(=O)c2cc(C)on2)cc(C(=O)Nc2cccc(C(F)(F)F)c2)c1`, which AC50 [6] is on record?
The AC50 was 24.2 µM (active).

And the AC50 [7]?
Its AC50 is 11.6 µM (active).

For `CC(Oc1ccc(Br)cc1)C(=O)Nc1nc(-c2ccccn2)cs1` (stereo not given), which CC50 [8] is on record?
Its CC50 is 9.95 µM (active).

What about the EC50 [9] of the same molecule?
The EC50 was 5.27 µM (active).

What about the IC50 [10] of the same molecule?
The IC50 was > 79 µM (inactive).

What about the IC50 [11] of the same molecule?
The IC50 was > 25 µM (active).

What about the IC50 [12] of the same molecule?
Its IC50 is 5.42 µM (active).

And the EC50 [13]?
The EC50 was 909 nM (active).

And the EC50 [14]?
Its EC50 is > 32 µM (inactive).

And the EC50 [15]?
The EC50 was 2.24 µM (active).

What about the IC50 [16] of the same molecule?
The IC50 was > 32 µM (inactive).

What about the EC50 [17] of the same molecule?
The EC50 was > 32 µM (inactive).

And the EC50 [18]?
The EC50 was 211 nM (active).

What about the EC50 [19] of the same molecule?
Its EC50 is > 31.5 µM (inactive).

And the pIC50 [20]?
The pIC50 was < 4.49.
